Where a SMILES comes first, the peptide text is derived from it. Bridges are numbered along the chain shown (N, C = ends). [ ]: non-standard residue; d: D form. The star is where a group is joined. Phe(4-COOH) = N[C@@H](Cc1ccc(C(=O)O)cc1)C(=O)O; Bip = N[C@@H](Cc1ccc(-c2ccccc2)cc1)C(=O)O; Phe(3-Me) = Cc1cccc(C[C@H](N)C(=O)O)c1; Cha = N[C@@H](CC1CCCCC1)C(=O)O; Carboxymethyl = O=C(O)C*; Orn = NCCC[C@H](N)C(=O)O; Dab = NCC[C@H](N)C(=O)O; Dap = NC[C@H](N)C(=O)O

For the assay, the target named is T1, human PD-1 / PD-L1-Ig binding on Jurkat cell line over-expressing human PD-1 (Jurkat-PD-1) (Homo sapiens, UniProt Q15116).
T1 construct: expressed in transfected cells; host or cells: Jurkat
T1 sequence (Q15116 25-288): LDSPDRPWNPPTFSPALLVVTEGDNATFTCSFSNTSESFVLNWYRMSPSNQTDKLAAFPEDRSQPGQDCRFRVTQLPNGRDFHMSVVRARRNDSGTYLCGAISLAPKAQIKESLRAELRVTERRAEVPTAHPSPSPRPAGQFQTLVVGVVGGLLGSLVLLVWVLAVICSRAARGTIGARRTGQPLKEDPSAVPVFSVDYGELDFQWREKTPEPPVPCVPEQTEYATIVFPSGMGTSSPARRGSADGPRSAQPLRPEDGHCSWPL
Put plainly: Jurkat-PD-1 Cell Binding High-Content Screening Assay (CBA). The format is cell-based. The note with it: Jurkat-PD-1 cells, PE-labeled PD-L1-Ig 20 nM final; read-out: Jurkat HPD1_PDL1 IC50. Put shortly: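 Read-out: high-content imaging of PE-tagged PD-L1-Ig bound to Jurkat cells overexpressing human PD-1, after fixation with 4% paraformaldehyde and Hoechst 33342 nuclear staining. Ligand was used at 20 nM final for 1 hour, after a 2 h compound exposure at 37° C in serum-containing DMEM.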
Regarding `CC(C)C[C@H]1NC(=O)[C@H](CCCN)NC(=O)[C@H](C(C)C)NC(=O)[C@H](Cc2ccc(-c3ccccc3)cc2)NC(=O)[C@H](C(C)C)NC(=O)[C@H](Cc2c[nH]c3ccccc23)NC(=O)[C@H](CC(=O)O)NC(=O)[C@H](Cc2ccc(OCC(=O)O)cc2)NC(=O)[C@H](CN)NC(=O)CSC[C@@H](C(=O)N[C@@H](C)C(N)=O)NC(=O)[C@H](CCCCN)NC(=O)[C@H](C(C)C)NC(=O)[C@H](CC2CCCCC2)NC(=O)[C@H](CCN)NC1=O` [Compound 1744] ({CH2CO}-[Dap]Y(Carboxymethyl)DWV[Bip]V[Orn][dL][Dab][Cha]VKCA-NH2; thioether N-14), the IC50 worked out at 4.7 nM.

Consider `CC(C)C[C@H]1NC(=O)[C@H](CCCN)NC(=O)[C@H](C(C)C)NC(=O)[C@H](Cc2ccc(-c3ccccc3)cc2)NC(=O)[C@H](C(C)C)NC(=O)[C@H](Cc2c[nH]c3ccccc23)NC(=O)[C@H](CC(=O)O)NC(=O)[C@H](Cc2ccc(C(=O)O)cc2)NC(=O)[C@H](Cc2ccc(OCC(=O)O)cc2)NC(=O)CSC[C@@H](C(=O)N[C@@H](C)C(N)=O)NC(=O)[C@H](CCCCN)NC(=O)[C@H](C(C)C)NC(=O)[C@H](CC2CCCCC2)NC(=O)[C@H](CCN)NC1=O` [Compound 1745] ({CH2CO}-Y(Carboxymethyl)[Phe(4-COOH)]DWV[Bip]V[Orn][dL][Dab][Cha]VKCA-NH2; thioether N-14), for which the IC50 was determined as 4 nM.

`CC(C)C[C@H]1NC(=O)[C@H](CCCN)NC(=O)[C@H](C(C)C)NC(=O)[C@H](Cc2ccc(-c3ccccc3)cc2)NC(=O)[C@H](C(C)C)NC(=O)[C@H](Cc2c[nH]c3ccccc23)NC(=O)[C@H](CC(=O)O)NC(=O)[C@H](Cc2ccc(OCC(=O)O)cc2)NC(=O)[C@H](Cc2ccc(OCC(=O)O)cc2)NC(=O)CSC[C@@H](C(=O)N[C@@H](C)C(N)=O)NC(=O)[C@H](CCCCN)NC(=O)[C@H](C(C)C)NC(=O)[C@H](CC2CCCCC2)NC(=O)[C@H](CCN)NC1=O` [Compound 1746] ({CH2CO}-Y(Carboxymethyl)Y(Carboxymethyl)DWV[Bip]V[Orn][dL][Dab][Cha]VKCA-NH2; thioether N-14): the IC50 came out at 8.8 nM.

For the compound `CC(C)C[C@H]1NC(=O)[C@H](CCCN)NC(=O)[C@H](C(C)C)NC(=O)[C@H](Cc2ccc(-c3ccccc3)cc2)NC(=O)[C@H](C(C)C)NC(=O)[C@H](Cc2c[nH]c3ccccc23)NC(=O)[C@H](CC(=O)O)NC(=O)[C@H](Cc2ccc(OCC(=O)O)cc2)NC(=O)[C@H](CN)NC(=O)CSC[C@@H](C(=O)N[C@@H](C)C(N)=O)NC(=O)[C@H](CCCNC(=N)N)NC(=O)[C@H](C(C)C)NC(=O)[C@H](CC2CCCCC2)NC(=O)[C@H](CCN)NC1=O` [Compound 1747] ({CH2CO}-[Dap]Y(Carboxymethyl)DWV[Bip]V[Orn][dL][Dab][Cha]VRCA-NH2; thioether N-14), the IC50 turned out to be 6.4 nM.

Take `CC(C)C[C@H]1NC(=O)[C@H](CCCN)NC(=O)[C@H](C(C)C)NC(=O)[C@H](Cc2ccc(-c3ccccc3)cc2)NC(=O)[C@H](C(C)C)NC(=O)[C@H](Cc2c[nH]c3ccccc23)NC(=O)[C@H](CC(=O)O)NC(=O)[C@H](Cc2ccc(C(=O)O)cc2)NC(=O)[C@H](Cc2ccc(OCC(=O)O)cc2)NC(=O)CSC[C@@H](C(=O)N[C@@H](C)C(N)=O)NC(=O)[C@H](CCCNC(=N)N)NC(=O)[C@H](C(C)C)NC(=O)[C@H](CC2CCCCC2)NC(=O)[C@H](CCN)NC1=O` [Compound 1748] ({CH2CO}-Y(Carboxymethyl)[Phe(4-COOH)]DWV[Bip]V[Orn][dL][Dab][Cha]VRCA-NH2; thioether N-14): the IC50 came to 7.6 nM.

`CC(C)C[C@H]1NC(=O)[C@H](CCCN)NC(=O)[C@H](C(C)C)NC(=O)[C@H](Cc2ccc(-c3ccccc3)cc2)NC(=O)[C@H](C(C)C)NC(=O)[C@H](Cc2c[nH]c3ccccc23)NC(=O)[C@H](CC(=O)O)NC(=O)[C@H](Cc2ccc(OCC(=O)O)cc2)NC(=O)[C@H](Cc2ccc(OCC(=O)O)cc2)NC(=O)CSC[C@@H](C(=O)N[C@@H](C)C(N)=O)NC(=O)[C@H](CCCNC(=N)N)NC(=O)[C@H](C(C)C)NC(=O)[C@H](CC2CCCCC2)NC(=O)[C@H](CCN)NC1=O` [Compound 1749] ({CH2CO}-Y(Carboxymethyl)Y(Carboxymethyl)DWV[Bip]V[Orn][dL][Dab][Cha]VRCA-NH2; thioether N-14): the IC50 came to 4.2 nM.

`CC(C)C[C@H]1NC(=O)[C@H](CCCN)NC(=O)[C@H](C(C)C)NC(=O)[C@H](Cc2ccc(-c3ccccc3)cc2)NC(=O)[C@H](C(C)C)NC(=O)[C@H](Cc2c[nH]c3ccccc23)NC(=O)[C@H](CC(=O)O)NC(=O)[C@H](Cc2ccc(OCC(=O)O)cc2)NC(=O)[C@H](CN)NC(=O)CSC[C@@H](C(=O)N[C@@H](C)C(N)=O)NC(=O)[C@H](Cc2cnc[nH]2)NC(=O)[C@H](C(C)C)NC(=O)[C@H](CC2CCCCC2)NC(=O)[C@H](CCN)NC1=O` [Compound 1750] ({CH2CO}-[Dap]Y(Carboxymethyl)DWV[Bip]V[Orn][dL][Dab][Cha]VHCA-NH2; thioether N-14): the IC50 worked out at 11.3 nM.

As to `CC(C)C[C@H]1NC(=O)[C@H](CCCN)NC(=O)[C@H](C(C)C)NC(=O)[C@H](Cc2ccc(-c3ccccc3)cc2)NC(=O)[C@H](C(C)C)NC(=O)[C@H](Cc2c[nH]c3ccccc23)NC(=O)[C@H](CC(=O)O)NC(=O)[C@H](Cc2ccc(C(=O)O)cc2)NC(=O)[C@H](Cc2ccc(OCC(=O)O)cc2)NC(=O)CSC[C@@H](C(=O)N[C@@H](C)C(N)=O)NC(=O)[C@H](Cc2cnc[nH]2)NC(=O)[C@H](C(C)C)NC(=O)[C@H](CC2CCCCC2)NC(=O)[C@H](CCN)NC1=O` [Compound 1751] ({CH2CO}-Y(Carboxymethyl)[Phe(4-COOH)]DWV[Bip]V[Orn][dL][Dab][Cha]VHCA-NH2; thioether N-14), the concentration for half-maximal inhibition (IC50) came to 7.8 nM.

For the compound `CC(C)C[C@H]1NC(=O)[C@H](CCCN)NC(=O)[C@H](C(C)C)NC(=O)[C@H](Cc2ccc(-c3ccccc3)cc2)NC(=O)[C@H](C(C)C)NC(=O)[C@H](Cc2c[nH]c3ccccc23)NC(=O)[C@H](CC(=O)O)NC(=O)[C@H](Cc2ccc(OCC(=O)O)cc2)NC(=O)[C@H](Cc2ccc(OCC(=O)O)cc2)NC(=O)CSC[C@@H](C(=O)N[C@@H](C)C(N)=O)NC(=O)[C@H](Cc2cnc[nH]2)NC(=O)[C@H](C(C)C)NC(=O)[C@H](CC2CCCCC2)NC(=O)[C@H](CCN)NC1=O` [Compound 1752] ({CH2CO}-Y(Carboxymethyl)Y(Carboxymethyl)DWV[Bip]V[Orn][dL][Dab][Cha]VHCA-NH2; thioether N-14), the IC50 came out at 6.7 nM.

For the compound `Cc1cccc(C[C@@H]2NC(=O)[C@H](CC(=O)O)NC(=O)[C@H](Cc3ccc(OCC(=O)O)cc3)NC(=O)[C@H](CN)NC(=O)CSC[C@@H](C(=O)N[C@@H](C)C(N)=O)NC(=O)[C@H](CN)NC(=O)[C@H](C(C)C)NC(=O)[C@H](CC3CCCCC3)NC(=O)[C@H](CCN)NC(=O)[C@@H](CC(C)C)NC(=O)[C@H](CCCN)NC(=O)[C@H](C(C)C)NC(=O)[C@H](Cc3ccc(-c4ccccc4)cc3)NC(=O)[C@H](C(C)C)NC2=O)c1` [Compound 1753] ({CH2CO}-[Dap]Y(Carboxymethyl)D[Phe(3-Me)]V[Bip]V[Orn][dL][Dab][Cha]V[Dap]CA-NH2; thioether N-14), the IC50 was determined as 5.1 nM.

With `Cc1cccc(C[C@@H]2NC(=O)[C@H](CC(=O)O)NC(=O)[C@H](Cc3ccc(OCC(=O)O)cc3)NC(=O)[C@H](CN)NC(=O)CSC[C@@H](C(=O)N[C@@H](C)C(N)=O)NC(=O)[C@H](CCCN)NC(=O)[C@H](C(C)C)NC(=O)[C@H](CC3CCCCC3)NC(=O)[C@H](CCN)NC(=O)[C@@H](CC(C)C)NC(=O)[C@H](CCCN)NC(=O)[C@H](C(C)C)NC(=O)[C@H](Cc3ccc(-c4ccccc4)cc3)NC(=O)[C@H](C(C)C)NC2=O)c1` [Compound 1754] ({CH2CO}-[Dap]Y(Carboxymethyl)D[Phe(3-Me)]V[Bip]V[Orn][dL][Dab][Cha]V[Orn]CA-NH2; thioether N-14), the IC50 was 5.5 nM.

Take `Cc1cccc(C[C@@H]2NC(=O)[C@H](CC(=O)O)NC(=O)[C@H](Cc3ccc(OCC(=O)O)cc3)NC(=O)[C@H](CN)NC(=O)CSC[C@@H](C(=O)N[C@@H](C)C(N)=O)NC(=O)[C@H](CCCCN)NC(=O)[C@H](C(C)C)NC(=O)[C@H](CC3CCCCC3)NC(=O)[C@H](CCN)NC(=O)[C@@H](CC(C)C)NC(=O)[C@H](CCCN)NC(=O)[C@H](C(C)C)NC(=O)[C@H](Cc3ccc(-c4ccccc4)cc3)NC(=O)[C@H](C(C)C)NC2=O)c1` [Compound 1755] ({CH2CO}-[Dap]Y(Carboxymethyl)D[Phe(3-Me)]V[Bip]V[Orn][dL][Dab][Cha]VKCA-NH2; thioether N-14): the half-maximal inhibitory concentration (IC50) was found to be 8.4 nM.

On to `Cc1cccc(C[C@@H]2NC(=O)[C@H](CC(=O)O)NC(=O)[C@H](Cc3ccc(OCC(=O)O)cc3)NC(=O)[C@H](CN)NC(=O)CSC[C@@H](C(=O)N[C@@H](C)C(N)=O)NC(=O)[C@H](CCCNC(=N)N)NC(=O)[C@H](C(C)C)NC(=O)[C@H](CC3CCCCC3)NC(=O)[C@H](CCN)NC(=O)[C@@H](CC(C)C)NC(=O)[C@H](CCCN)NC(=O)[C@H](C(C)C)NC(=O)[C@H](Cc3ccc(-c4ccccc4)cc3)NC(=O)[C@H](C(C)C)NC2=O)c1` [Compound 1756] ({CH2CO}-[Dap]Y(Carboxymethyl)D[Phe(3-Me)]V[Bip]V[Orn][dL][Dab][Cha]VRCA-NH2; thioether N-14), for which the IC50 amounted to 5.5 nM.

For the compound `Cc1cccc(C[C@@H]2NC(=O)[C@H](CC(=O)O)NC(=O)[C@H](Cc3ccc(OCC(=O)O)cc3)NC(=O)[C@H](CN)NC(=O)CSC[C@@H](C(=O)N[C@@H](C)C(N)=O)NC(=O)[C@H](Cc3cnc[nH]3)NC(=O)[C@H](C(C)C)NC(=O)[C@H](CC3CCCCC3)NC(=O)[C@H](CCN)NC(=O)[C@@H](CC(C)C)NC(=O)[C@H](CCCN)NC(=O)[C@H](C(C)C)NC(=O)[C@H](Cc3ccc(-c4ccccc4)cc3)NC(=O)[C@H](C(C)C)NC2=O)c1` [Compound 1757] ({CH2CO}-[Dap]Y(Carboxymethyl)D[Phe(3-Me)]V[Bip]V[Orn][dL][Dab][Cha]VHCA-NH2; thioether N-14), the IC50 was found to be 13.2 nM.

What is called IC50 is the concentration that inhibits the measured activity by half.

(Values after patent US20250163104A1, “MACROCYCLIC IMMUNOMODULATORS” (priority 2021, published 2025).)
